We go through four compounds from article PMC6588608 (Communications Biology, 2019).

Structures are written as SMILES. Numbering of substitutions follows the chain as printed. Read-outs that look alike come from different tables or passages of the source.

One experiment addresses T1, ETB receptor (wild type) (Homo sapiens, UniProt P24530).
T1 construct: expressed in transfected cells; host or cells: HEK293A
T1 sequence (P24530 27-442): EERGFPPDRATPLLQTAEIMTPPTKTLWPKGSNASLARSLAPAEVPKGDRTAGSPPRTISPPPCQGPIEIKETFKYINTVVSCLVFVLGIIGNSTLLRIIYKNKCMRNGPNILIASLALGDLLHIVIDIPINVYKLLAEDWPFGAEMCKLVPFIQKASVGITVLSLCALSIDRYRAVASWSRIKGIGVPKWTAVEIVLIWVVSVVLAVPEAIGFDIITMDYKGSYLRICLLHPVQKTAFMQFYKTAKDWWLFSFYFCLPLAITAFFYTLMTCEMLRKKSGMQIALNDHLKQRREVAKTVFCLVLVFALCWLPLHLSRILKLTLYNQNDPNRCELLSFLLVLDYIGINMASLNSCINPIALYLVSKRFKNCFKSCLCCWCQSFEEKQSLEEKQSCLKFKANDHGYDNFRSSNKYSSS
As to the kind of experiment: TGFα shedding assay, antagonist activity against ET-1 (0.5 nM)-induced AP-TGFα release. The experiment is classed as cell-based. The following applies: Supplementary Fig. 5d, ETB (WT). As for the experimental part: The TGFα shedding assay, which measures the activation of Gq/11 and G12/13 signaling, was performed as described previously. Briefly, a plasmid encoding an ETB construct with an internal FLAG epitope tag or an ETA construct was transfected, together with a plasmid encoding alkaline phosphatase (AP)-tagged TGFα (AP-TGFα), into HEK293A cells by using a polyethylenimine (PEI) transfection reagent (1 µg ETR plasmid, 2.5 µg AP-TGFα plasmid, and 25 µl of 1 mg per ml PEI solution per 10-cm culture dish). […] The AP-TGFα release signals were fitted to a four-parameter sigmoidal concentration-response curve, using the Prism 7 software (GraphPad Prism), and the pEC50 (equal to −log10 EC50) and Emax values were obtained.

Another experiment has as its target T2, ETB-WT (Homo sapiens, UniProt P24530).
T2 sequence (P24530 27-442): T1 sequence (P24530 27-442)
The experiment is described as follows: TGFα shedding assay, inverse agonist activity (4 h incubation). The following applies: for Emax: read-out: Emax ± SEM.

The target of experiment [1] is T3, ETB-L192^3.43Q (constitutively active ETB receptor) (Homo sapiens, UniProt P24530, L192Q).
T3 sequence (P24530 27-442 L192Q): T1 sequence (P24530 27-442) with L166Q
The description is as above. The following applies: for Emax: read-out: Emax ± SEM.
Procedure: (§1) The TGFα shedding assay, which measures the activation of Gq/11 and G12/13 signaling[24], was performed as described previously[22]. Briefly, a plasmid encoding an ETB construct with an internal FLAG epitope tag or an ETA construct was transfected, together with a plasmid encoding alkaline phosphatase (AP)-tagged TGFα (AP-TGFα), into HEK293A cells by using a polyethylenimine (PEI) transfection reagent (1 µg ETR plasmid, 2.5 µg AP-TGFα plasmid, and 25 µl of 1 mg per ml PEI solution per 10-cm culture dish). […] The AP-TGFα release signals were fitted to a four-parameter sigmoidal concentration-response curve, using the Prism 7 software (GraphPad Prism), and the pEC50 (equal to −log10 EC50) and Emax values were obtained.
(§2) To measure the constitutive activity in a plasmid volume-dependent manner, HEK293 cells were seeded in a 96-well plate at a concentration of 4 × 10^5 cells per ml in Opti-MEM I Reduced Serum Media (Thermo Fisher Scientific), in a volume of 80 μl per well. […] After adding the AP reaction solution, the absorbances of the cells and the CM plates were measured at 20 min intervals. The AP-TGFα release signals were calculated as described above, and the signal in the mock-transfected conditions was set at the baseline.

The next experiment addresses T4, ETA (WT) (Homo sapiens, UniProt P25101).
T4 sequence (P25101 21-427): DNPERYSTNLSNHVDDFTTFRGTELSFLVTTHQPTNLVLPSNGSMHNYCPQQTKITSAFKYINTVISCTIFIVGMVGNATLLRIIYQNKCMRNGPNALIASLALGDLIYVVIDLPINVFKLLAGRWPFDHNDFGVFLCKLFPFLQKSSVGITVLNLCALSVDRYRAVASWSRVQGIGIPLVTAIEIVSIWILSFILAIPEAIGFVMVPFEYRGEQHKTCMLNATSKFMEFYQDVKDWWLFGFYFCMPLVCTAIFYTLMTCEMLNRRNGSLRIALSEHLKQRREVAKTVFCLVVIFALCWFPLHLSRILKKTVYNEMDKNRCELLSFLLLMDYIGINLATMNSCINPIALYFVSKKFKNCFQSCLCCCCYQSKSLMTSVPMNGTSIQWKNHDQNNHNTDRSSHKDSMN
The experiment is described as above.

Experiment [2] addresses T5, ETA (L3.43Q) (constitutively active ETA receptor) (Homo sapiens, UniProt P25101, L176Q).
T5 sequence (P25101 21-427 L176Q): T4 sequence (P25101 21-427) with L156Q
Described as above. The conditions noted are these: for change of the basal activity: ETA-L^3.43Q, Supplementary Fig. 6b, c.
Procedure: as §1, §2

Another experiment deals with T6, ETA receptor (wild type) (Homo sapiens, UniProt P25101).
T6 sequence (P25101 21-427): T4 sequence (P25101 21-427)
As to the kind of experiment: TGFα shedding assay, antagonist activity against ET-1 (0.5 nM)-induced AP-TGFα release.

The target in experiment [3] is T7, constitutively active ETB receptor (ETB-L3.43Q) (Homo sapiens, UniProt P24530, L192Q).
T7 sequence (P24530 27-442 L192Q): T1 sequence (P24530 27-442) with L166Q
Described as above.
Procedure: as §1, §2

Experiment [4] concerns the target T8, constitutively active ETA receptor (ETA-L3.43Q) (Homo sapiens, UniProt P25101, L176Q).
T8 sequence (P25101 21-427 L176Q): T4 sequence (P25101 21-427) with L156Q
The experiment is described as above.
Procedure: as §1, §2

A further experiment has as its target ETB receptor. Set-up: method as in PMID 8587424. The following applies: read-out: IC50 as ETB-selective antagonist; cited from earlier work.
In experiment [5] the test system is cold injury-mediated brain edema. Further details: method as in PMID 25000290, PMID 26174228. The conditions noted are these: animal model; intracerebroventricular administration; cited from earlier work.

Procedure for ETA (WT): as §1
Procedure for ETA receptor (wild type): as §1
Procedure for ETB-WT: as §1

One may read the Emax as the size of the effect at its maximum, as opposed to the concentration needed. What is called EC50 is the concentration needed to bring the measured effect to its halfway point. A low value points to an effect from little substance. As to `CCCC[C@@H](NC(=O)[C@@H](Cc1cn(C(=O)OC)c2ccccc12)NC(=O)[C@H](CC(C)(C)C)NC(=O)N1[C@H](C)CCC[C@@H]1C)C(=O)O` [BQ-788], the IC50 was 110 nM on ETB receptor (wild type) (read-out: IC50); 107 nM at ETB receptor (wild type) (read-out: pIC50 ± SEM (converted)); greater than 10000 nM against ETA receptor (wild type) (IC50, Supplementary Fig. 5d, ETA (WT)); 75 nM in experiment [3] (IC50, Supplementary Fig. 5d); 74.1 nM in experiment [3] (pIC50 ± SEM, Supplementary Fig. 5d); greater than 10000 nM in experiment [4]. For the same compound, the Emax on ETB-WT was less than 2%; in experiment [1], -18.5 ± 0.7%; at ETA (WT), less than 2%; in experiment [2] it was less than 2%. The EC50 in experiment [1] (EC50, Table 3, ETB-L192^3.43Q, 4 h incubation, reduction of basal activity for inverse agonists) is 0.96 nM; in [1] (pEC50 (mean ± SEM), Table 3, ETB-L192^3.43Q, 4 h incubation), 0.955 nM.

On to `Cc1cc(C)cc(C(=O)N(C)C(Cc2ccc(-c3ccccc3)cc2)C(=O)NC(Cc2c[nH]c3ccccc23)C(=O)O)c1` (centres unmarked) [IRL2500], for which the IC50 was 1.2 nM at ETB receptor; greater than 3000 nM against ETA receptor (wild type) (IC50 for the ETA receptor, text on Fig. 1a); less than 3160 nM at ETA receptor (wild type) (pIC50 ± SEM ETA, Fig. 1a, HEK293 cells); greater than 3000 nM in experiment [4]. Moreover, in experiment [5], the “effect on cold injury-mediated brain edema and disruption of the blood–brain barrier” value is “attenuated the cold injury-mediated brain edema and disruption of the blood–brain barrier”. Besides, the Emax at ETB-WT was less than 2%; in [1], -27 ± 1.1%; at ETA (WT), less than 2%; in experiment [2] it was less than 2%. Further, the “change of the receptor activation level (ligand-induced AP-TGFα release)” value at ETB-WT (wild-type ETB, 4 h-incubation, Fig. 4d) is on record as “did not change the receptor activation level”. In experiment [2], the “change of the basal activity” value is on record as “did not change the basal activity”.

For the compound `COc1ccccc1Oc1c(NS(=O)(=O)c2ccc(C(C)(C)C)cc2)nc(-c2ncccn2)nc1OCCO` [Bosentan], the Emax on ETA (WT) was less than 2%. In addition, in experiment [2], the Emax is less than 2% and the “change of the basal activity” value is “did not change the basal activity”.

Regarding `COc1ccccc1Oc1c(NS(=O)(=O)c2ccc(C(C)(C)C)cc2)nc(-c2ncccn2)nc1OCCC(=O)Nc1c(C)cccc1C` [K-8794], the “pIC50 ± SEM” value at ETB receptor (wild type) worked out at 8.06 ± 0.04; in experiment [3] (Supplementary Fig. 5d), 8.37 ± 0.06. Besides, the IC50 on ETB receptor (wild type) (read-out: IC50) is 8.7 nM; against ETA receptor (wild type) (Supplementary Fig. 5d, ETA (WT)) it was greater than 3000 nM; in experiment [3] (Supplementary Fig. 5d) it was 4.2 nM; in [4] (Supplementary Fig. 5d, ETA (L3.43Q), ET-1 0.5 nM) it was greater than 3000 nM. Moreover, the “Emax ± SEM” value is given as less than 2% at ETB-WT (Table 3, ETB-WT, AP-TGFα release, spontaneous release set at baseline, 4 h) and −31.5 ± 2.0% in experiment [1] (Table 3, ETB-L192^3.43Q, AP-TGFα release, spontaneous release set at baseline, 4 h). For the same compound, in [1] (Table 3, ETB-L192^3.43Q, 4 h incubation), the “pEC50 (mean ± SEM)” value is 9.21 ± 0.04. The same compound registered an EC50 in experiment [1] (Table 3, ETB-L192^3.43Q, 4 h incubation, reduction of basal activity for inverse agonists) of 0.61 nM. In addition, the Emax at ETA (WT) (Supplementary Fig. 6c, ETA (WT), AP-TGFα release, baseline = no compound, 4 h) is listed as less than 2%; in experiment [2] (Supplementary Fig. 6c, ETA (L3.43Q), AP-TGFα release, baseline = no compound, 4 h), less than 2%.
